Reference: ChEMBL document CHEMBL3885881, “DrugMatrix”

Organism: Rattus norvegicus
Assay: DrugMatrix - Regimen: Daily Repeat
Format: toxicity, organism-based, Sprague-Dawley
Set-up: regimen Daily Repeat, gender Male, age 6-8 weeks
Settings: in vivo, po, route oral GAVAGE, vehicle 60 % PEG400; for ABSOLUTE BASOPHIL / ABSOLUTE EOSINOPHIL / ABSOLUTE LYMPHOCYTE / ABSOLUTE MONOCYTE / ABSOLUTE SEGMENTED NEUTROPHIL / BASOPHIL / EOSINOPHIL / ERYTHROCYTE COUNT / HEMATOCRIT / HEMOGLOBIN / LEUKOCYTE COUNT / LYMPHOCYTE / MEAN CORPUSCULAR HEMOGLOBIN / MEAN CORPUSCULAR HEMOGLOBIN CONCENTRATION / MEAN CORPUSCULAR VOLUME / MONOCYTE / NEUTROPHIL / NUCLEATED RED BLOOD CELLS / PLATELET COUNT: tissue Blood; for ALANINE AMINOTRANSFERASE / ALBUMIN / ALKALINE PHOSPHATASE / ASPARTATE AMINOTRANSFERASE / BLOOD UREA NITROGEN / CARBON DIOXIDE / CHLORIDE / CHOLESTEROL / CREATINE PHOSPHOKINASE / CREATININE / GLUCOSE / LACTATE DEHYDROGENASE / LIPASE / PHOSPHORUS / POTASSIUM / SODIUM / TOTAL BILIRUBIN / TOTAL PROTEIN / URIC ACID: tissue Plasma
[1] = 0 mg/kg, 72 h, dose level Control, time 3 day
[2] = 0 mg/kg, 120 h, dose level Control, time 5 day
[3] = 0.001 mg/kg, 72 h, dose level Low, time 3 day

N[C@@H](Cc1cc(I)c(Oc2ccc(O)c(I)c2)c(I)c1)C(=O)O [LIOTHYRONINE]
ABSOLUTE BASOPHIL [1]: 0 CELLS/uL | ABSOLUTE EOSINOPHIL [1]: 48.67 CELLS/uL | ABSOLUTE LYMPHOCYTE [1]: 11723.33 CELLS/uL | ABSOLUTE MONOCYTE [1]: 132.67 CELLS/uL | ABSOLUTE SEGMENTED NEUTROPHIL [1]: 1362 CELLS/uL | BASOPHIL [1]: 0% | EOSINOPHIL [1]: 0.33% | ERYTHROCYTE COUNT [1]: 5.61 x10E6/uL | HEMATOCRIT [1]: 33.53% | HEMOGLOBIN [1]: 13.13 G/DL | LEUKOCYTE COUNT [1]: 13.27 x10E3/uL | LYMPHOCYTE [1]: 88.33% | MEAN CORPUSCULAR HEMOGLOBIN [1]: 23.4 pg | MEAN CORPUSCULAR HEMOGLOBIN CONCENTRATION [1]: 39.17 G/DL | MEAN CORPUSCULAR VOLUME [1]: 59.8 fL | MONOCYTE [1]: 1% | NEUTROPHIL [1]: 10.33% | NUCLEATED RED BLOOD CELLS [1]: 0.67 /100WBC | PLATELET COUNT [1]: 967.33 x10E3/uL | ALANINE AMINOTRANSFERASE [1]: 60.33 u/L | ALBUMIN [1]: 4.3 G/DL | ALKALINE PHOSPHATASE [1]: 403.33 u/L | ASPARTATE AMINOTRANSFERASE [1]: 87 u/L | BLOOD UREA NITROGEN [1]: 14.67 mg/dL | CARBON DIOXIDE [1]: 31 mmol/L | CHLORIDE [1]: 103 MEQ/L | CHOLESTEROL [1]: 82.33 mg/dL | CREATINE PHOSPHOKINASE [1]: 376.33 u/L | CREATININE [1]: 0.17 mg/dL | GLUCOSE [1]: 146.33 mg/dL | LACTATE DEHYDROGENASE [1]: 196.33 u/L | LIPASE [1]: 12.33 u/L | PHOSPHORUS [1]: 11.43 mg/dL | POTASSIUM [1]: 6.79 MEQ/L | SODIUM [1]: 147.27 MEQ/L | TOTAL BILIRUBIN [1]: 0.2 mg/dL | TOTAL PROTEIN [1]: 6.13 G/DL | URIC ACID [1]: 1.33 mg/dL | ABSOLUTE BASOPHIL [2]: 0 CELLS/uL | ABSOLUTE EOSINOPHIL [2]: 19 CELLS/uL | ABSOLUTE LYMPHOCYTE [2]: 4849 CELLS/uL | ABSOLUTE MONOCYTE [2]: 38 CELLS/uL | ABSOLUTE SEGMENTED NEUTROPHIL [2]: 660.67 CELLS/uL | BASOPHIL [2]: 0% | EOSINOPHIL [2]: 0.33% | ERYTHROCYTE COUNT [2]: 4.95 x10E6/uL | HEMATOCRIT [2]: 29.67% | HEMOGLOBIN [2]: 11.53 G/DL | LEUKOCYTE COUNT [2]: 5.57 x10E3/uL | LYMPHOCYTE [2]: 87.67% | MEAN CORPUSCULAR HEMOGLOBIN [2]: 23.33 pg | MEAN CORPUSCULAR HEMOGLOBIN CONCENTRATION [2]: 38.9 G/DL | MEAN CORPUSCULAR VOLUME [2]: 59.87 fL | MONOCYTE [2]: 0.67% | NEUTROPHIL [2]: 11.33% | NUCLEATED RED BLOOD CELLS [2]: 0.33 /100WBC | PLATELET COUNT [2]: 653.33 x10E3/uL | ALANINE AMINOTRANSFERASE [2]: 48.33 u/L | ALBUMIN [2]: 4.27 G/DL | ALKALINE PHOSPHATASE [2]: 396 u/L | ASPARTATE AMINOTRANSFERASE [2]: 75.67 u/L | BLOOD UREA NITROGEN [2]: 15 mg/dL | CARBON DIOXIDE [2]: 31.33 mmol/L | CHLORIDE [2]: 103 MEQ/L | CHOLESTEROL [2]: 76.33 mg/dL | CREATINE PHOSPHOKINASE [2]: 182.67 u/L | CREATININE [2]: 0.2 mg/dL | GLUCOSE [2]: 181 mg/dL | LACTATE DEHYDROGENASE [2]: 88 u/L | LIPASE [2]: 8.33 u/L | PHOSPHORUS [2]: 12.33 mg/dL | POTASSIUM [2]: 6.09 MEQ/L | SODIUM [2]: 146.47 MEQ/L | TOTAL BILIRUBIN [2]: 0.17 mg/dL | TOTAL PROTEIN [2]: 6.3 G/DL | URIC ACID [2]: 1.43 mg/dL | ABSOLUTE BASOPHIL [3]: 0 CELLS/uL | ABSOLUTE EOSINOPHIL [3]: 72.67 CELLS/uL | ABSOLUTE LYMPHOCYTE [3]: 12680.33 CELLS/uL | ABSOLUTE MONOCYTE [3]: 379.67 CELLS/uL | ABSOLUTE SEGMENTED NEUTROPHIL [3]: 1067.33 CELLS/uL | BASOPHIL [3]: 0% | EOSINOPHIL [3]: 0.67% | ERYTHROCYTE COUNT [3]: 5.31 x10E6/uL | HEMATOCRIT [3]: 34.1% | HEMOGLOBIN [3]: 13.1 G/DL | LEUKOCYTE COUNT [3]: 14.2 x10E3/uL | LYMPHOCYTE [3]: 89.33% | MEAN CORPUSCULAR HEMOGLOBIN [3]: 24.67 pg | MEAN CORPUSCULAR HEMOGLOBIN CONCENTRATION [3]: 38.47 G/DL | MEAN CORPUSCULAR VOLUME [3]: 64.17 fL | MONOCYTE [3]: 2.33% | NEUTROPHIL [3]: 7.67% | NUCLEATED RED BLOOD CELLS [3]: 0 /100WBC | PLATELET COUNT [3]: 1001 x10E3/uL | ALANINE AMINOTRANSFERASE [3]: 51 u/L | ALBUMIN [3]: 4.37 G/DL | ALKALINE PHOSPHATASE [3]: 321 u/L | ASPARTATE AMINOTRANSFERASE [3]: 82.33 u/L | BLOOD UREA NITROGEN [3]: 17.33 mg/dL | CARBON DIOXIDE [3]: 29.67 mmol/L | CHLORIDE [3]: 105.33 MEQ/L | CHOLESTEROL [3]: 79.67 mg/dL | CREATINE PHOSPHOKINASE [3]: 347 u/L | CREATININE [3]: 0.16 mg/dL | GLUCOSE [3]: 144 mg/dL | LACTATE DEHYDROGENASE [3]: 167.33 u/L | LIPASE [3]: 13 u/L | PHOSPHORUS [3]: 12.4 mg/dL | POTASSIUM [3]: 6.56 MEQ/L | SODIUM [3]: 146.23 MEQ/L | TOTAL BILIRUBIN [3]: 0.2 mg/dL | TOTAL PROTEIN [3]: 6.03 G/DL
